15 molecules from patent US10077261B2, “Imidazolin-5-one derivative useful as FASN inhibitors for the treatment of cancer” (Janssen Pharmaceutica NV, priority 2012, dated 2018) can be followed below.

In assay [1] the test system is LNCaP-Vancouver prostate cells. Kind of assay: In vitro LNCaP Vancouver prostate cell proliferation assay in lipid reduced medium. In kind it is cell-based. As to conditions: read-out: pIC50 LNCaP_Vancouver prostate cell (converted). As to the method: LNCaP-Vancouver prostate cells were obtained from the Vancouver Prostate Cancer Centre. Cells were maintained in RPMI-1640, 10% Fetal Calf Serum (FCS, Hyclone), 2 mM glutamine and 50 μg/ml Gentamicin.
For the proliferation experiment 1500 LNCaP-Vancouver cells per well were seeded in a 384-well black with clear bottom plate (costar 3712BC) in 40 μl RPMI-1640, 10% Lipid reduced serum (LRS, Hyclone), 50 μg/ml Gentamicin and 2 mM Glutamine and incubated at 37° C., 5% CO2. The next day 10 μl of test compound/DMSO diluted in medium was added (3E-5M, 1E-5M, 3E-6M, 1E-6M, 3E-7M, 1E-7M, 3E-8M, 1E-8M final concentration). Compounds were tested in duplicate. After 96 h incubation at 37° C., 5% CO2 25 μl ATP-glow mix was added. The plate was incubated for 30 min at 37° C. and luminescence was measured with the Envision.
Analysis: Determination of pIC50 Values
pIC50 values were calculated as follows.
where mLC and mHC are the means of the low control wells and high control wells on the plate, after manual exclusion of outliers. The relation between the % Controlmin values and concentration was fitted to a 4-parameter logistic curve using a non-linear least squares regression method to determine the pIC50 value. Outlying data points were excluded manually to get a correct fit. The pIC50 corresponds to −log 10(IC50), if the IC50 is expressed in molar units (http://www.ncbi.nlm.nih.gov/books/NBK91994). The IC50 parameter was always determined by non-linear regression, but one or more of the other parameters may have been held fixed on a relevant input value, such as 0 for the bottom values.
For dose response curves with FASN inhibitors in LNCaP-Vancouver or PC-3M-Luc-C6 cells the curves bottom out around 30 to 40% of the control value. A standard fit PL2, forcing the lower bound to this level was used.
Representative compounds of the present invention were tested according to the procedure as described in Biological Example 4a and 4b above, with results as listed in Table 9, below.

Assay [2] relates to A2780 ovarian cells. In words: A2780 ovarian cell proliferation assay in lipid reduced medium, with palmitate (MTT). In kind it is cell-based. The conditions noted are these: Homo sapiens, A2780, 96 h; read-out: pIC50 A2780 Ovarian Cell, With Palmitate (converted). The method in brief:
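Seeded cells were switched next day to lipid-reduced serum, exposed to compound and 25 μM palmitate complexed with fatty-acid-free BSA, and incubated 96 h. Proliferation was then determined by MTT absorbance at 544 nm, with a best-fit curve of signal against concentration.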

The subject of assay [3] is A2780 ovarian cells. Kind of assay: A2780 ovarian cell proliferation assay in lipid reduced medium, without palmitate (MTT). In kind it is cell-based. The conditions noted are these: Homo sapiens, A2780, 96 h; read-out: pIC50 A2780 Ovarian Cell, Without Palmitate (converted).
For assay [4], the target named is Fatty Acid Synthase Keto-reductase Domain (FASN KR) (Homo sapiens, UniProt P49327). In words: Fatty Acid Synthase keto-reductase domain (FASN KR) inhibition, NADPH oxidation at 340 nm.
Protocol: After 20 minutes incubation at room temperature the plate was measured again (T2).
The decrease in absorbance was calculated as (Absorbance before incubation T1)−(Absorbance following incubation T2).
A plot of Controlmin versus test compound concentration was fitted to a 4-parameter logistic curve using a non-linear least squares regression method.
The target of assay [5] is T1, hFASN enzyme (full length) (Homo sapiens, UniProt P49327).
T1 construct: 10 μL hFASN enzyme (full length, 300 ng, purified in house); made in house
In words: Fatty Acid Synthase (FASN) inhibition scintillation proximity assay. In kind it is biochemical. As to conditions: for inhibition at 10 µM: read-out: Human FASN % inhibition @ 10 μM, 10 μM test compound; for IC50: read-out: Human FASN pIC50 (converted). The essentials:
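Full-length in-house purified enzyme (300 ng) was tested in 100 mM KH2PO4 pH 7.5, 1 mM DTT with ³H-acetyl-CoA and malonyl-CoA as substrates; compounds ranged 0.01–30 μM. Reactions were stopped with streptavidin imaging beads, read by LEADseeker at 610 nm, and fitted to a 4-parameter logistic curve.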

Usually inhibition stands for the drop in the measured response relative to a control, in per cent.

Chain of Fatty Acid Synthase Keto-reductase Domain (FASN KR) (P49327 whole entry, the tested form may be a part): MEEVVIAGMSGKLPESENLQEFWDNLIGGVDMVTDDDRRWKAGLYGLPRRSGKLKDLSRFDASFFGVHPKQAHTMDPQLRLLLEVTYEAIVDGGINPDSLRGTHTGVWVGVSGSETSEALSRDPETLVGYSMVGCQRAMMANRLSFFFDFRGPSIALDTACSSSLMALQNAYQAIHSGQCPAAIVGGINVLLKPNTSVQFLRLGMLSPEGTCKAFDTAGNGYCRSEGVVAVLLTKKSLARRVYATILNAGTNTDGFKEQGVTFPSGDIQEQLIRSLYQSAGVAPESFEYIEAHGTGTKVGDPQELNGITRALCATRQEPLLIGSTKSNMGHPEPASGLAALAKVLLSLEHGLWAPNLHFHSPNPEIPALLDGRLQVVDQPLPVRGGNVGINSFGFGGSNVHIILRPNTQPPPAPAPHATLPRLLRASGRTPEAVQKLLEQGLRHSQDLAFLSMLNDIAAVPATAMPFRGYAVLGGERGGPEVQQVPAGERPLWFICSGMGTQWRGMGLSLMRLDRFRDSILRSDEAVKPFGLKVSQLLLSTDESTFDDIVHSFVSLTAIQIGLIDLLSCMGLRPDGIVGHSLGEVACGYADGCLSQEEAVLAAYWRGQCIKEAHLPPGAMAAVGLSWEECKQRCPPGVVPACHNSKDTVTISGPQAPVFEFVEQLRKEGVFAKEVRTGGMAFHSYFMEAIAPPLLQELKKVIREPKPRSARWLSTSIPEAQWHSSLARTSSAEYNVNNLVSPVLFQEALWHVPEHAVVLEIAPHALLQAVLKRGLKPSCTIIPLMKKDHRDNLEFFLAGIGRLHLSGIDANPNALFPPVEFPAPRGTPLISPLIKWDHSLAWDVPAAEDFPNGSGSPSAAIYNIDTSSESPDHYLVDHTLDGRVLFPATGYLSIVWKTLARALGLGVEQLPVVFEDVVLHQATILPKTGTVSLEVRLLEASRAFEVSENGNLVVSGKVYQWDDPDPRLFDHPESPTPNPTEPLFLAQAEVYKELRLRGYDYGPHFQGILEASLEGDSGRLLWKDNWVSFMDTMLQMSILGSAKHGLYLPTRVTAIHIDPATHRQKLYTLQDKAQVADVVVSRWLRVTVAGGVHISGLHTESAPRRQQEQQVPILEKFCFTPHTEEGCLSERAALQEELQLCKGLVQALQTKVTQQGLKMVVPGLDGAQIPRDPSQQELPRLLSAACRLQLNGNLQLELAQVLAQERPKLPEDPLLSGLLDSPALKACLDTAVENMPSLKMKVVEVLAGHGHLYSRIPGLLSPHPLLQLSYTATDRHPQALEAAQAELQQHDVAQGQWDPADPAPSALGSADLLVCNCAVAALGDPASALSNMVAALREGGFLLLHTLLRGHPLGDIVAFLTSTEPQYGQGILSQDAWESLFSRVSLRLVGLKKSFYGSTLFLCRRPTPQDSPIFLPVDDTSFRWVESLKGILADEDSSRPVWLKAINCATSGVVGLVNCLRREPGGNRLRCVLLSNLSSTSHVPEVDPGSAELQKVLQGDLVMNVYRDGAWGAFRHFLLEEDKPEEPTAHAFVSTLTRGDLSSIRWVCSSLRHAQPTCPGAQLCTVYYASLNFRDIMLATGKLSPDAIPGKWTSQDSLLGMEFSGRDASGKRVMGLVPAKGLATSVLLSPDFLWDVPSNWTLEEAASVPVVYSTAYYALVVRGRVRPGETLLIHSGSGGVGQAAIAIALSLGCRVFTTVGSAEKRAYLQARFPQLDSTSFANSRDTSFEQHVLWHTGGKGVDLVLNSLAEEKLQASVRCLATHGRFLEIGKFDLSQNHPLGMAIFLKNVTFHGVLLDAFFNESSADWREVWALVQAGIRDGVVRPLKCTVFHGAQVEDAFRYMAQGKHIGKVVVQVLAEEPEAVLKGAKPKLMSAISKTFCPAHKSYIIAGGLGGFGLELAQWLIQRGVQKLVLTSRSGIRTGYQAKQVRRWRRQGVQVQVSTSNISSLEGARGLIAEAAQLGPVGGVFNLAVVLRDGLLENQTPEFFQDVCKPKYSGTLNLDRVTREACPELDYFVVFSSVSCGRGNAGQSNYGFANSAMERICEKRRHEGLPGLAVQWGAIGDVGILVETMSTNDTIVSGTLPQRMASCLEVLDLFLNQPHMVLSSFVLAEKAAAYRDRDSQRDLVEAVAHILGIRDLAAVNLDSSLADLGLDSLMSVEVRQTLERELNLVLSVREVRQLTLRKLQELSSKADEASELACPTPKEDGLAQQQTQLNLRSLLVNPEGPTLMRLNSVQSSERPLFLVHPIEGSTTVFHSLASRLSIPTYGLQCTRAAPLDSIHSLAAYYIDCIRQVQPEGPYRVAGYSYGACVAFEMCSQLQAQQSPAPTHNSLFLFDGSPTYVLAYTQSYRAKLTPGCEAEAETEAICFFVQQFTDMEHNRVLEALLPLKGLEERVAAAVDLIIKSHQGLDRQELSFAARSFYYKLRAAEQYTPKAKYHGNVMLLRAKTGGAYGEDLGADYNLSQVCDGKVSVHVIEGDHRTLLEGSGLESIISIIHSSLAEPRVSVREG
T1 sequence (P49327 whole entry): as the sequence (P49327 whole entry, the tested form may be a part) above

Take `O=C(C1CC1)N1CC[C@@H](CN2C(=O)C3(CC3)N=C2c2ccc(-c3ccc4cc(F)ccc4c3)cc2)C1` [compound 311, (R)-6-((1-(cyclopropanecarbonyl)pyrrolidin-3-yl)methyl)-5-(4-(6-fluoronaphthalen-2-yl)phenyl)-4,6-diazaspiro[2.4]hept-4-en-7-one]: the IC50 in assay [1] is 302 nM; with A2780 ovarian cells [2] it was greater than 10000 nM; with A2780 ovarian cells [3] it was roughly 229 nM.

On to `Cc1ccc2cc(-c3ccc(C4=NC5(CC5)C(=O)N4CC4CN(C(=O)C5CC5)C4)cc3)ccc2n1` [compound 510, 6-{[1-(Cyclopropylcarbonyl)azetidin-3-yl]methyl}-5-[4-(2-methylquinolin-6-yl)phenyl]-4,6-diazaspiro[2.4]hept-4-en-7-one], for which the IC50 in assay [1] is 4790 nM; in assay [4], 5370 nM; in assay [5] it was 955 nM. In addition, the inhibition at 10 µM in assay [5] came to 80%.

`O=C([C@H]1CCCO1)N1CC[C@@H](CN2C(=O)C3(CCOCC3)N=C2c2ccc(-c3ccc4occc4c3)cc2)C1` [compound 669, 2-[4-(1-Benzofuran-5-yl)phenyl]-3-({(3R)-1-[(2R)-tetrahydro-furan-2-ylcarbonyl]pyrrolidin-3-yl}methyl)-8-oxa-1,3-diazaspiro[4.5]dec-1-en-4-one]: the IC50 in assay [1] was 2820 nM.

As for `Cn1ncc2cc(-c3ccc(C4=NC5(CCOCC5)C(=O)N4C[C@@H]4CCN(C(=O)C5CC5)C4)cc3)ccc21` [compound 672, 3-{[(3R)-1-(Cyclopropylcarbonyl)pyrrolidin-3-yl]methyl}-2-[4-(1-methyl-1H-indazol-5-yl)phenyl]-8-oxa-1,3-diazaspiro[4.5]dec-1-en-4-one], the IC50 in assay [1] is 2630 nM; in the assay on A2780 ovarian cells [2], greater than 10000 nM; in the assay with A2780 ovarian cells [3] it was roughly 407 nM.

As for `O=C(C1CC1)N1CC[C@@H](CN2C(=O)C3(CCOC3)N=C2c2ccc(-c3ccc4cccnc4c3)cc2)C1` (stereo partly drawn) [compound 680, 3-{[(3R)-1-(Cyclopropylcarbonyl)pyrrolidin-3-yl]methyl}-2-(4-quinolin-7-ylphenyl)-7-oxa-1,3-diazaspiro[4.4]non-1-en-4-one], the IC50 is 339 nM in assay [1], 224 nM in assay [4] and 79.4 nM in assay [5]. For the same molecule, in assay [5], the inhibition at 10 µM amounted to 98%.

With `O=C(C1CC1)N1CC[C@@H](CN2C(=O)C3(CCOC3)N=C2c2ccc(-c3ccc4occc4c3)cc2)C1` (stereo partly drawn) [compound 686, 2-[4-(1-Benzofuran-5-yl)phenyl]-3-{[(3R)-1-(cyclopropylcarbonyl)pyrrolidin-3-yl]methyl}-7-oxa-1,3-diazaspiro[4.4]non-1-en-4-one], the IC50 is 3800 nM in assay [1], 676 nM in assay [4] and 182 nM in assay [5]. In assay [5], the inhibition at 10 µM came out at 98%.

For the molecule `Cn1ncc2cc(-c3ccc(C4=NC5(CCOC5)C(=O)N4C[C@@H]4CCN(C(=O)C5CC5)C4)cc3)ccc21` (stereo partly drawn) [compound 690, 3-{[(3R)-1-(Cyclopropylcarbonyl)pyrrolidin-3-yl]methyl}-2-[4-(1-methyl-1H-indazol-5-yl)phenyl]-7-oxa-1,3-diazaspiro[4.4]non-1-en-4-one], the IC50 was 2340 nM in assay [1], greater than 10000 nM in the assay on A2780 ovarian cells [2] and 708 nM in the assay on A2780 ovarian cells [3].

As to `COC(=O)N1CC2(C1)N=C(c1ccc(-c3ccc(-c4cnn(C)c4)cc3)cc1)N(C[C@@H]1CCN(C(=O)C3CC3)C1)C2=O` [compound 725, Methyl 7-{[(3R)-1-(cyclopropylcarbonyl)pyrrolidin-3-yl]methyl}-6-[4′-(1-methyl-1H-pyrazol-4-yl)biphenyl-4-yl]-8-oxo-2,5,7-triazaspiro[3.4]oct-5-ene-2-carboxylate], the IC50 in assay [1] is 1660 nM; in assay [4] it was 646 nM; in assay [5], 245 nM. Further, the inhibition at 10 µM in assay [5] amounted to 93%.

Turning to `COCCN1CCC2(CC1)N=C(c1ccc(-c3ccc4[nH]ccc4c3)cc1)N(CC1CN(C(=O)C3CC3)C1)C2=O` [compound 755, 3-{[1-(Cyclopropylcarbonyl)azetidin-3-yl]methyl}-2-[4-(1H-indol-5-yl)phenyl]-8-triazaspiro[4.5]dec-1-en-4-one], the IC50 in the assay with A2780 ovarian cells [2] is greater than 6170 nM; in assay [4], 631 nM; in assay [5] it was 229 nM; with A2780 ovarian cells [3], roughly 316 nM. Moreover, the inhibition at 10 µM in assay [5] was determined as 107%.

As for `O=C(C1CC1)N1CC(CN2C(=O)C3(CCN(CCO)CC3)N=C2c2ccc(-c3ccc4[nH]ccc4c3)cc2)C1` [compound 757, 3-{[1-(Cyclopropylcarbonyl)azetidin-3-yl]methyl}-8-(2-hydroxyethyl)-2-[4-(1H-indol-5-yl)phenyl]-1,3,8-triazaspiro[4.5]dec-1-en-4-one], the IC50 in the assay with A2780 ovarian cells [2] was greater than 10000 nM; in assay [4] it was 1000 nM; in assay [5], 158 nM; in the assay on A2780 ovarian cells [3] it was 708 nM. Further, the inhibition at 10 µM in assay [5] came out at 104%.

Regarding `O=C(C1CC1)N1CC[C@@H](CN2C(=O)C3(CCCC3)N=C2c2ccc(-c3ccc4[nH]ccc4c3)cc2F)C1` [compound 845, (R)-3-((1-(cyclopropanecarbonyl)pyrrolidin-3-yl)methyl)-2-(2-fluoro-4-(1H-dinol-5-yl)phenyl)-1,3-diazaspiro[4.4]non-1-en-4-one], the IC50 was greater than 10000 nM in the assay on A2780 ovarian cells [2], 25.1 nM in assay [4], 20 nM in assay [5] and 11 nM with A2780 ovarian cells [3]. Further, in assay [5], the inhibition at 10 µM was 106%.

With `O=C(C1CC1)N1CC[C@@H](CN2C(=O)C3(CCCC3)N=C2c2ccc(-c3ccc4cc[nH]c4c3)cc2F)C1` [compound 874, (R)-3-((1-(cyclopropanecarbonyl)pyrrolidin-3-yl)methyl)-2-(2-fluoro-4-(1H-indol-6-yl)phenyl)-1,3-diazaspiro[4.4]non-1-en-4-one], the IC50 with A2780 ovarian cells [2] was greater than 10000 nM; in assay [4] it was 40.7 nM; in assay [5], 25.1 nM; in the assay on A2780 ovarian cells [3] it was 20.9 nM. Also, the inhibition at 10 µM in assay [5] is 108%.

As to `O=C(N1CC[C@@H](CN2C(=O)C3(CCCC3)N=C2c2ccc(-c3ccc4occc4c3)cc2)C1)C1(O)CC1` [compound 878, (R)-2-(4-(benzofuran-5-yl)phenyl)-3-((1-(1-hydroxycyclopropanecarbonyl)pyrrolidin-3-yl)methyl)-1,3-diazaspiro[4.4]non-1-en-4-one], the IC50 with A2780 ovarian cells [2] was greater than 10000 nM; in assay [4], 60.3 nM; in assay [5], 36.3 nM; in the assay with A2780 ovarian cells [3] it was roughly 93.3 nM. In assay [5], the inhibition at 10 µM was determined as 113%.

Consider `Cc1nnc(-c2ccc(-c3ccc(C4=NC5(CCCC5)C(=O)N4C[C@@H]4CCN(C(=O)C5CC5)C4)c(C)c3)cc2)o1` [compound 882, (R)-3-((1-(cyclopropanecarbonyl)pyrrolidin-3-yl)methyl)-2-(3-methyl-4′-(5-methyl-1,3,4-oxadiazol-2-yl)-[1,1′-biphenyl]-4-yl)-1,3-diazaspiro[4.4]non-1-en-4-one], for which the IC50 in the assay on A2780 ovarian cells [2] is greater than 10000 nM; in assay [4], 295 nM; in assay [5], 135 nM; in the assay with A2780 ovarian cells [3], roughly 89.1 nM. For the same molecule, the inhibition at 10 µM in assay [5] came to 107%.

Take `Cc1cc(-c2ccc3c(c2)OCO3)ccc1C1=NC2(CCCC2)C(=O)N1C[C@@H]1CCN(C(=O)C2CC2)C1` [compound 883, (R)-2-(4-(benzo[d][1,3]dioxol-5-yl)-2-methylphenyl)-3-((1-(cyclopropanecarbonyl)pyrrolidin-3-yl)methyl)-1,3-diazaspiro[4.4]non-1-en-4-one]: the IC50 in the assay with A2780 ovarian cells [2] is greater than 10000 nM; in assay [4], 1050 nM; in assay [5], 269 nM; in the assay with A2780 ovarian cells [3], roughly 2450 nM. The inhibition at 10 µM in assay [5] was 100%.
